The record followed here is patent publication US10131744B2, “Antimicrobial polyamide compositions and mastitis treatment” (priority 2013, dated 2018).

The conditions of the data set: in vivo, iv. From the text:
The present invention thus provides novel and non-obvious antimicrobial polyamide compositions, and methods of using same for treating and preventing mastitis in non-human animals. The methods generally comprise administering to an infected animal an effective amount of the veterinary composition to eliminate or cure, completely or substantially, mastitis-causing pathogen(s).

The substance “poly (4,4′-trimethylene dipiperidine bispropanoic acid-co-1,3-diamino propane)” yielded a maximum tolerated dose of approximately 40 mg/kg.
